In patent publication US20180064646A1, “METHOD AND DEVICE FOR ADMINISTERING XINAFOATE SALT OF N4-(2,2-DIFLUORO-4H-BENZO[1,4]OXAZIN-3-ONE)-6-YL]-5-FLUORO-N2-[3-(METHYLAMINOCARBONYLMETHYLENEOXY)PHENYL]2,4-PYRIMIDINEDIAMINE” (Rigel Pharmaceutical, Inc., priority 2011, published 2018):
Structures can show the parent of a compound that is named as a salt.

Assays:
Assay type in all cases: physicochemical
[1] = Solvation/hydration assessed by thermogravimetric analysis (TGA); solid form screening; details: for hydration or solvation: TGA, ambient to 300° C. at 20° C./min
Procedure: (§1) Hygroscopicity was assessed using dynamic vapor sorption equipment (Surface Measurement Systems Ltd, model DVS-1). The analysis was conducted at 30° C. with a nitrogen gas flow of 200 cc/min. Water sorption and desorption were determined in the range 0 to 90% relative humidity (RH) using 15% RH intervals. Exposure was for a minimum of 2 hours at each humidity, or until the rate of weight change was less than 0.0003%/minute (averaged over 10 minutes). Sample weight was 12.6 mg. The sample was weighed using a CAHN D-200, seven place digital recording balance, which is an integral part of the equipment. […] Solvation/Hydration was assessed by thermogravimetric analysis (TGA) using a TA Instruments Hi-Res TGA 2950 instrument measuring the weight loss of an 8.8 mg sample in an open platinum pan. The sample was heated at 20° C./min from ambient to 300° C. utilizing a nitrogen furnace purge gas.

[2] = Hygroscopicity by dynamic vapor sorption (DVS)
Procedure: as §1

[3] = Solid state stability and excipient compatibility on storage (drug content and impurities); details: for % main band remaining versus control: API
Procedure: In order to test for solid state stability and excipient compatibility, a sample of the xinafoate salt was micronized by jet milling (particle size: D10=0.24 μm; D50=1.15 D90=4.29 μm) and the resulting powder was blended at a 1:100 weight ratio with lactose monohydrate (Respitose grade SV008). Samples were stored for 12 weeks at 25° C./60% relative humidity and 40° C./75% relative humidity and assayed for remaining drug content and impurities at 4, 8 and 12 weeks. A control sample was stored at 5° C./0% humidity.

Row | hydration or solvation [1] | hygroscopicity ([2]; DVS, 0 to 90% RH, 30° C.) | water sorption ([2]; at 90% RH, 30° C., DVS, unmicronized sample) | water sorption ([2]; at 90% relative humidity, following micronization using jet milling) | solid form after micronization ([2]; following micronization using jet milling) | time for which stable ([3]; 25° C./60% relative humidity) | time for which stable ([3]; 40° C./75% relative humidity) | % main band remaining versus control ([3]; 25° C./60% RH, 4 weeks, control 5° C./0% humidity) | % main band remaining versus control ([3]; 25° C./60% RH, 8 weeks) | % main band remaining versus control ([3]; 25° C./60% RH, 12 weeks) | % main band remaining versus control ([3]; 40° C./75% RH, 4 weeks) | % main band remaining versus control ([3]; 40° C./75% RH, 8 weeks) | % main band remaining versus control ([3]; 40° C./75% RH, 12 weeks) | Compound | solvate formation ([1]; nine solvents tested)
1 | hydrates to form a hemihydrate | – | – | – | – | – | – | – | – | – | – | – | – | CNC(=O)COc1cccc(Nc2ncc(F)c(Nc3ccc4c(c3)NC(=O)C(F)(F)O4)n2)c1 [free base, N4-[(2,2-difluoro-4H-benzo[1,4]oxazin-3-one)-6-yl]-5-fluoro-N2-[3-(methylaminocarbonylmethyleneoxy)phenyl]-2,4-pyrimidinediamine] | formed a different solvated form in each of nine solvents tested
2 | does not show any hydration or solvation | essentially non-hygroscopic | 0.6% | 0.9% | no change in solid form | at least two years | at least six months | 100.2% | 99.9% | 100.1% | 100.4% | 100.0% | 100.0% | CNC(=O)COc1cccc(Nc2ncc(F)c(Nc3ccc4c(c3)NC(=O)C(F)(F)O4)n2)c1 [xinafoate salt, N4-[(2,2-difluoro-4H-benzo[1,4]oxazin-3-one)-6-yl]-5-fluoro-N2-[3-(methylaminocarbonylmethyleneoxy)phenyl]-2,4-pyrimidinediamine] | –
